Experimental data as given in ChEMBL document CHEMBL1201862, “PubChem BioAssay data set” (2004).
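Growth conditions: 96-well plates. Treatment: test compound, 48 hours, 5 concentrations. Analysis: linear interpolation between bracketing concentrations; unreached endpoints set to highest concentration. The concentration for 50% growth inhibition is given as GI50.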 Activity calls are given as the source filed them. Rule as the data show it: active = GI50 up to about 1.1 µM and inactive = higher.

Key:
Assay in all cases: NCI tumour cell line growth inhibition, 48 h
RXF 631 = tested on: RXF 631
MDA-N = tested on: MDA-N
MDA-MB-231 = tested on: MDA-MB-231
PC-3 = tested on: PC-3
MDA-MB-435 = tested on: MDA-MB-435
Hs-578T = tested on: Hs-578T
T47D = tested on: T47D
BT-549 = tested on: BT-549

Measured: GI50

COCCOCOC(C)(C)[C@H](CCO)O[Si](c1ccccc1)(c1ccccc1)C(C)(C)C
inactive: RXF 631 5.85 µM

CC1(C)N/C(=C\C=O)C(C)(C)N1O
inactive: MDA-N > 100 µM | MDA-MB-231 > 100 µM | PC-3 > 100 µM | MDA-MB-435 > 100 µM | Hs-578T > 100 µM

COc1ccc(-c2c(C#N)c(NC(=S)NC(=O)c3ccccc3)nc3c2CCCC3)cc1OC
inactive: MDA-N 65.3 µM | MDA-MB-231 34.7 µM | PC-3 46.2 µM | MDA-MB-435 66.1 µM | Hs-578T 33.3 µM | T47D 14.9 µM | BT-549 > 100 µM
